Experimental findings from the supplement of paper PMC11208160 are described below.

The nature of this data set: recombinant UMI read abundance after kanamycin selection (control-corrected) (log10(CPM+1)); higher = more efficient recombination; extreme values may be limits of the assay; sequences stand for … in AGTGCAGAGAAAATCGGCCAGTTTTCTCTGCCTGCAGTCCGCATGCCGTGGGACCCCTTGGGTTCTAACCTGTTGCCTAGATTTATGCAGCGGACTGCCTTTCTCCCAAAGTGATAAACCGG…AGGTTGGTTTCACT; site = the 11-nt donor. Here is the method:
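Pooled E. coli donor-specificity screen for the IS621 bridge recombinase. Each library member carries a reprogrammed 11-nt donor and a full-length LE bridge RNA expressed in cis from the natural promoter, with a paired donor-binding loop (8-nt LDG + 4-nt RDG) and a target-binding loop fixed to T5. It is co-electroporated with a T5 target plasmid; recombinase is induced with 0.07 mM IPTG and recombinants are selected on kanamycin. UMIs are counted as CPM, averaged over two biological replicates and corrected by the unselected control. Molecule = full bridge RNA written as DNA, built from the T5 scaffold: LDG = donor specificity nt 1-8, RDG = reverse complement of nt 8-11.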
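Further: IS621 bridge recombinase in Escherichia coli cells against a fixed T5 target plasmid.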

On to “AATTATCCATGGACCGGTTTTCCCGGTAATCCGTATTTGGA (site AATTATCCTTC)”, for which the “recombinant UMI read abundance (log10)” value was 0.

Take “AATTATCCATGGACCGGTTTTCCCGGTAATCCGTATTTGGA (site AATTATGCTTC)”: the “recombinant UMI read abundance (log10)” value was 0.0173.

For the sequence “AATTATCCATGGACCGGTTTTCCCGGTAATCCGTATTTGGA (site AATTATTCTTC)”, the “recombinant UMI read abundance (log10)” value came to 0.322.

Consider “AATTATGCATGGACCGGTTTTCCCGGTAATCCGTATTTGGA (site AAATATGCTTC)”, for which the “recombinant UMI read abundance (log10)” value came out at 1.34.

Take “AATTATGCATGGACCGGTTTTCCCGGTAATCCGTATTTGGA (site AACTATGCTTC)”: the “recombinant UMI read abundance (log10)” value was determined as 1.02.

As for “AATTATGCATGGACCGGTTTTCCCGGTAATCCGTATTTGGA (site AAGTATGCTTC)”, the “recombinant UMI read abundance (log10)” value was found to be 1.19.

As for “AATTATGCATGGACCGGTTTTCCCGGTAATCCGTATTTGGA (site AATAATGCTTC)”, the “recombinant UMI read abundance (log10)” value was found to be 0.535.

With “AATTATGCATGGACCGGTTTTCCCGGTAATCCGTATTTGGA (site AATCATGCTTC)”, the “recombinant UMI read abundance (log10)” value was 0.445.

On to “AATTATGCATGGACCGGTTTTCCCGGTAATCCGTATTTGGA (site AATGATGCTTC)”, for which the “recombinant UMI read abundance (log10)” value was determined as 0.482.

Take “AATTATGCATGGACCGGTTTTCCCGGTAATCCGTATTTGGA (site AATTAAGCTTC)”: the “recombinant UMI read abundance (log10)” value stood at 0.54.

For the sequence “AATTATGCATGGACCGGTTTTCCCGGTAATCCGTATTTGGA (site AATTACGCTTC)”, the “recombinant UMI read abundance (log10)” value came to 0.439.

Turning to “AATTATGCATGGACCGGTTTTCCCGGTAATCCGTATTTGGA (site AATTAGGCTTC)”, the “recombinant UMI read abundance (log10)” value came to 0.38.

Turning to “AATTATGCATGGACCGGTTTTCCCGGTAATCCGTATTTGGA (site AATTATACTTC)”, the “recombinant UMI read abundance (log10)” value was found to be 0.816.

Take “AATTATGCATGGACCGGTTTTCCCGGTAATCCGTATTTGGA (site AATTATCCTTC)”: the “recombinant UMI read abundance (log10)” value is 0.447.

As to “AATTATGCATGGACCGGTTTTCCCGGTAATCCGTATTTGGA (site AATTATGCTAC)”, the “recombinant UMI read abundance (log10)” value was found to be 0.0199.

Take “AATTATGCATGGACCGGTTTTCCCGGTAATCCGTATTTGGA (site AATTATGCTCC)”: the “recombinant UMI read abundance (log10)” value worked out at 0.0288.

On to “AATTATGCATGGACCGGTTTTCCCGGTAATCCGTATTTGGA (site AATTATGCTGC)”, for which the “recombinant UMI read abundance (log10)” value came out at 0.

In the case of “AATTATGCATGGACCGGTTTTCCCGGTAATCCGTATTTGGA (site AATTATGCTTA)”, the “recombinant UMI read abundance (log10)” value stood at 0.00642.

As for “AATTATGCATGGACCGGTTTTCCCGGTAATCCGTATTTGGA (site AATTATGCTTC)”, the “recombinant UMI read abundance (log10)” value stood at 0.373.

Consider “AATTATGCATGGACCGGTTTTCCCGGTAATCCGTATTTGGA (site AATTATGCTTG)”, for which the “recombinant UMI read abundance (log10)” value was found to be 0.

For “AATTATGCATGGACCGGTTTTCCCGGTAATCCGTATTTGGA (site AATTATGCTTT)”, the “recombinant UMI read abundance (log10)” value was determined as 0.359.

In the case of “AATTATGCATGGACCGGTTTTCCCGGTAATCCGTATTTGGA (site AATTATTCTTC)”, the “recombinant UMI read abundance (log10)” value was 0.941.

For “AATTATGCATGGACCGGTTTTCCCGGTAATCCGTATTTGGA (site AATTCTGCTTC)”, the “recombinant UMI read abundance (log10)” value is 0.313.

Take “AATTATGCATGGACCGGTTTTCCCGGTAATCCGTATTTGGA (site AATTGTGCTTC)”: the “recombinant UMI read abundance (log10)” value stood at 0.266.

For “AATTATGCATGGACCGGTTTTCCCGGTAATCCGTATTTGGA (site AATTTTGCTTC)”, the “recombinant UMI read abundance (log10)” value turned out to be 0.00678.

Regarding “AATTATGCATGGACCGGTTTTCCCGGTAATCCGTATTTGGA (site ACTTATGCTTC)”, the “recombinant UMI read abundance (log10)” value was determined as 0.937.

Consider “AATTATGCATGGACCGGTTTTCCCGGTAATCCGTATTTGGA (site AGTTATGCTTC)”, for which the “recombinant UMI read abundance (log10)” value stood at 1.09.

In the case of “AATTATGCATGGACCGGTTTTCCCGGTAATCCGTATTTGGA (site ATTTATGCTTC)”, the “recombinant UMI read abundance (log10)” value was determined as 1.25.

For “AATTATGCATGGACCGGTTTTCCCGGTAATCCGTATTTGGA (site CATTATGCTTC)”, the “recombinant UMI read abundance (log10)” value came out at 1.51.

Consider “AATTATGCATGGACCGGTTTTCCCGGTAATCCGTATTTGGA (site GATTATGCTTC)”, for which the “recombinant UMI read abundance (log10)” value was determined as 0.983.

“AATTATGCATGGACCGGTTTTCCCGGTAATCCGTATTTGGA (site TATTATGCTTC)”: the “recombinant UMI read abundance (log10)” value is 0.862.

With “AATTATGCATGGACCGGTTTTCCCGGTAATCCGTATTTGGT (site AATTATGCTAC)”, the “recombinant UMI read abundance (log10)” value turned out to be 2.02.

Regarding “AATTATGCATGGACCGGTTTTCCCGGTAATCCGTATTTGGT (site AATTATGCTCC)”, the “recombinant UMI read abundance (log10)” value was 0.00684.

On to “AATTATGCATGGACCGGTTTTCCCGGTAATCCGTATTTGGT (site AATTATGCTGC)”, for which the “recombinant UMI read abundance (log10)” value was 0.

For the sequence “AATTATGCATGGACCGGTTTTCCCGGTAATCCGTATTTGGT (site AATTATGCTTC)”, the “recombinant UMI read abundance (log10)” value was found to be 0.0116.

On to “AATTGCTCATGGACCGGTTTTCCCGGTAATCCGTATTTGCC (site AATTGCTCTGG)”, for which the “recombinant UMI read abundance (log10)” value is 2.51.

Take “AATTGGGCATGGACCGGTTTTCCCGGTAATCCGTATTTGAA (site AATTGGGCTTT)”: the “recombinant UMI read abundance (log10)” value came out at 0.399.

“AATTTGTCATGGACCGGTTTTCCCGGTAATCCGTATTTGAC (site AATATGTCTGT)”: the “recombinant UMI read abundance (log10)” value worked out at 0.

With “AATTTGTCATGGACCGGTTTTCCCGGTAATCCGTATTTGAC (site AATCTGTCTGT)”, the “recombinant UMI read abundance (log10)” value was determined as 0.

For “AATTTGTCATGGACCGGTTTTCCCGGTAATCCGTATTTGAC (site AATGTGTCTGT)”, the “recombinant UMI read abundance (log10)” value was 0.

For the sequence “AATTTGTCATGGACCGGTTTTCCCGGTAATCCGTATTTGAC (site AATTTGTCTGT)”, the “recombinant UMI read abundance (log10)” value was 0.

For the sequence “ACAAAATCATGGACCGGTTTTCCCGGTAATCCGTATTTGCA (site ACAAAATCTTG)”, the “recombinant UMI read abundance (log10)” value is 1.3.

In the case of “ACAAAATCATGGACCGGTTTTCCCGGTAATCCGTATTTGCA (site ACAGTATCTTG)”, the “recombinant UMI read abundance (log10)” value amounted to 1.45.

“ACAAAGGCATGGACCGGTTTTCCCGGTAATCCGTATTTGCT (site AAAAAGGCTAG)”: the “recombinant UMI read abundance (log10)” value was found to be 0.

In the case of “ACAAAGGCATGGACCGGTTTTCCCGGTAATCCGTATTTGCT (site ACAAAGGCTAG)”, the “recombinant UMI read abundance (log10)” value came out at 2.57.

As for “ACAAAGGCATGGACCGGTTTTCCCGGTAATCCGTATTTGCT (site AGAAAGGCTAG)”, the “recombinant UMI read abundance (log10)” value was found to be 0.

As to “ACAAAGGCATGGACCGGTTTTCCCGGTAATCCGTATTTGCT (site ATAAAGGCTAG)”, the “recombinant UMI read abundance (log10)” value came to 1.17.

On to “ACAACTACATGGACCGGTTTTCCCGGTAATCCGTATTTGTG (site ACAACTACTCA)”, for which the “recombinant UMI read abundance (log10)” value is 0.844.

Consider “ACAACTACATGGACCGGTTTTCCCGGTAATCCGTATTTGTG (site ACACCTACTCA)”, for which the “recombinant UMI read abundance (log10)” value turned out to be 0.0441.

Regarding “ACAACTACATGGACCGGTTTTCCCGGTAATCCGTATTTGTG (site ACAGCTACTCA)”, the “recombinant UMI read abundance (log10)” value stood at 0.0923.

Consider “ACAACTACATGGACCGGTTTTCCCGGTAATCCGTATTTGTG (site ACATCTACTCA)”, for which the “recombinant UMI read abundance (log10)” value was 0.146.

Take “ACAAGAACATGGACCGGTTTTCCCGGTAATCCGTATTTGAG (site ACAAGAACTCT)”: the “recombinant UMI read abundance (log10)” value is 2.72.

For “ACAAGAACATGGACCGGTTTTCCCGGTAATCCGTATTTGAG (site ACCAGAACTCT)”, the “recombinant UMI read abundance (log10)” value came out at 0.645.

As to “ACAAGAACATGGACCGGTTTTCCCGGTAATCCGTATTTGAG (site ACGAGAACTCT)”, the “recombinant UMI read abundance (log10)” value is 1.41.

Consider “ACAAGAACATGGACCGGTTTTCCCGGTAATCCGTATTTGAG (site ACTAGAACTCT)”, for which the “recombinant UMI read abundance (log10)” value was determined as 0.755.

With “ACAAGGCCATGGACCGGTTTTCCCGGTAATCCGTATTTGAC (site AAAAGGCCTGT)”, the “recombinant UMI read abundance (log10)” value was 0.

As for “ACAAGGCCATGGACCGGTTTTCCCGGTAATCCGTATTTGAC (site ACAAGGCCTGT)”, the “recombinant UMI read abundance (log10)” value was determined as 0.512.

As for “ACAAGGCCATGGACCGGTTTTCCCGGTAATCCGTATTTGAC (site AGAAGGCCTGT)”, the “recombinant UMI read abundance (log10)” value is 0.

On to “ACAAGGCCATGGACCGGTTTTCCCGGTAATCCGTATTTGAC (site ATAAGGCCTGT)”, for which the “recombinant UMI read abundance (log10)” value turned out to be 1.34.

Turning to “ACAAGTGCATGGACCGGTTTTCCCGGTAATCCGTATTTGGT (site ACAAGTGCTAC)”, the “recombinant UMI read abundance (log10)” value was 2.04.

With “ACAAGTGCATGGACCGGTTTTCCCGGTAATCCGTATTTGGT (site ACCAGTGCTAC)”, the “recombinant UMI read abundance (log10)” value was 0.897.

For the sequence “ACAAGTGCATGGACCGGTTTTCCCGGTAATCCGTATTTGGT (site ACGAGTGCTAC)”, the “recombinant UMI read abundance (log10)” value came to 1.09.

With “ACAAGTGCATGGACCGGTTTTCCCGGTAATCCGTATTTGGT (site ACTAGTGCTAC)”, the “recombinant UMI read abundance (log10)” value was 1.16.

For the sequence “ACAATATCATGGACCGGTTTTCCCGGTAATCCGTATTTGCT (site ACAATATCTAG)”, the “recombinant UMI read abundance (log10)” value came to 2.64.

Turning to “ACAATATCATGGACCGGTTTTCCCGGTAATCCGTATTTGCT (site ACAGTATCTTG)”, the “recombinant UMI read abundance (log10)” value is 0.278.
